For one series, the target named is T1, hTRPM8 (Homo sapiens, UniProt Q7Z2W7).
T1 construct: expressed in transfected cells; host or cells: HEK293 (transient, Lipofectamine 3000)
Briefly: Whole-cell patch-clamp of WS-12-evoked currents in HEK293 cells expressing hTRPM8. In kind it is cell-based. From the text:
We first used patch‐clamp to investigate the potency and blockade mechanism of compound 23 inhibiting WS‐12 evoked ionic currents in hTRPM8‐HEK293 cells. […] This blockade activity was reversible as virtually all WS‐12‐evoked ionic current could be recovered upon washout (Fig. 3A, bottom panel), thus preventing a use‐dependent side effect.
To unveil the underlying mechanism of channel blockade (competitive vs noncompetitive) we evaluated the effect of the α‐acyloxy carboxamide 23 on WS‐12 activating potency. For this purpose, we obtained the WS‐12 dose response in the absence and presence of 80 nM compound 23 (corresponding to its IC50 value).
For this purpose, we run 100 ms voltage ramps from −120 to 120 mV activated by WS‐12 in the absence and presence of 80 nM α‐acyloxy carboxamide 23.
(§1) Recording through patch‐clamp techniques was performed on HEK293 cells cultured in DMEM GlutaMax with 10% FBS and 1% P/S. The cell lines were authenticated following the standardization of STR Profiling guidelines (ANSI/ATCC ASN‐0002‐2022) using the CLA Identifier Plus PCR Amplification Kit (Thermo Fisher‐A44660) to analyze 16 highly variant human STRs. The cells were confirmed to be mycoplasma‐free. These cells were transiently transfected with plasmids encoding hTRPV1, hTRPM8, or hTRPA1 using Lipofectamine 3000. Transfected cells were seeded on 12 mm Ø glass coverslips treated with poly‐L‐lysine solution and recorded 2 days post‐transfection. The intracellular pipette solution included (in mM) 150 NaCl, 3 MgCl2, 5 EGTA, and 10 HEPES, pH 7.2 with CsOH, while the extracellular solution contained (in mM) 150 NaCl, 6 CsCl, 1 MgCl2, 1.5 CaCl2, 10 glucose, and 10 HEPES, pH 7.4 with NaOH. An EPC‐10 amplifier with Patchmaster software was used in whole‐cell experiments. Patch pipettes, created from thin‐wall borosilicate capillary glass tubing, were pulled with a Micropipette puller to a final resistance of 2–8 MΩ when filled with the internal solution. Recordings were acquired at 10 kHz and low‐pass filtered at 3 kHz, discarding recordings with leak currents > 200pA or series resistance > 20 MΩ. In voltage‐clamp recordings, cells were held at a constant potential, and the application of modulators was carried out using a gravity‐driven perfusion system. Total currents were normalized to the first current peak evoked by the activating stimuli. To study the effect of compound 23 on TRPM8 voltage dependence, a voltage step protocol from −120 to 120 mV was used with 100 ms steps of 20 mV from a holding potential at 0 mV. Leak currents were not subtracted, and conductance was calculated using the equation: G = I/(V − V r), where I is the measured ionic current, V is the applied voltage, and V r is the reversal potential that for the ionic conditions used was set to 0 mV.
Dose–response relationships for WS‐12 channel activation were normalized to the response of the channel to a saturating concentration of the agonist. Similarly, dose–response curves for blockade activity were normalized with respect to the response in the absence of the blocker. The experimental data were fitted to the Hill equation: Y=Bottom+Top‐Bottom/(1+10^ligand−LogIC50orLogEC50) using PRISM 9 software. Top was fixed to 100, as the unblocked response or the maximal response for WS‐12.
On the technique in general: In patch-clamp work, channel activity is measured electrically.

Series [1] in a line: Metabolic stability and metabolite profile in mouse liver microsomes (MLM). To be noted: phase I metabolites of compound 23 in MLM, LC-HRMS, estimated from total ion current. The class given is in vitro ADME. As to the method:
Because of the lack of systemic activity of compound 23, we evaluated the in vitro plasmatic and hepatic metabolic stability. To this aim, compound 23 was exposed to mouse plasma and mouse liver microsome (MLM) fractions, and the residual substrate was measured after 1 h. Under these conditions, the residual substrate was about 97% and 90% in plasma and microsomes, respectively, denoting that this molecule suffers from mild hydrolysis of the ester group.
Metabolic biotransformation of compound 23 was investigated by tandem high‐resolution mass spectrometry using the software COMPOUND DISCOVERER 3.2™.
The standard incubation mixture (250 μL final volume) was carried out in a 50 mM Tris (tris[hydroxymethyl]aminomethane) buffer (pH 7.4) containing 150 mM KCl, […], 3.3 mM MgCl2, 1.3 mM NADPNa2, 3.3 mM glucose 6‐phosphate, 0.4 units·mL^−1 glucose 6‐phosphate dehydrogenase, acetonitrile as cosolvent (1% of total volume), and the substrate (50 μM). After pre‐equilibration of the mixture, an appropriate volume of MLM suspension was added to give a final protein concentration of 1.0 mg·mL^−1. The mixture was shaken for 60 min at 37 °C using a horizontal shaking thermostatic bath while protecting the samples from light. Control incubations were carried out without the presence of substrate, or NADPH regenerating system, or microsomes. Each incubation was stopped by the addition of 250 μL of ice‐cold acetonitrile, vortexed, and centrifuged at 13 000 r.p.m. for 5 min [68]. The supernatants were analyzed by LC‐UV and LC‐HRMS equipment (see Tables S1 and S2, Fig. S79 for full parameters setting in the Supporting Information).
The metabolic stability of the compound 23 was determined in vitro by measuring the residual peak area after incubation by LC‐UV analysis. Samples were further processed by LC‐HRMS equipment for metabolite profiling. Raw data files were processed using both XCALIBUR® and COMPOUND DISCOVERER 3.2® software (Thermo Scientific) using a customized workflow for the detection and identification of the expected and unknown metabolites (Fig. S80).

Another series addresses T2, hTRPA1 (Homo sapiens, UniProt O75762).
T2 construct: expressed in transfected cells; host or cells: HEK293 (transient, Lipofectamine 3000)
Briefly: Whole-cell patch-clamp of AITC-evoked currents in HEK293 cells expressing hTRPA1. The class given is cell-based. To be noted: 5 μM compound, 60 μM AITC, −60 mV. As to the method: To evaluate receptor selectivity, we investigated the activity of compound 23 on recombinant hTRPV1 and hTRPA1 channels recombinantly expressed in HEK293 cells (Fig. 4). We choose these thermosensory channels because of their structural similarity and expression in peripheral nociceptive terminals. In addition, some ligand cross‐interaction within these channels has been reported.
as §1, with “Total currents were normalized to the first current peak evoked by the activating stimuli. To study the effect of compound 23 on TRPM8 voltage dependence, a voltage step protocol from −120 to 120 mV was used with 100 ms steps of 20 mV from a holding potential at 0 mV.” left out, “mV. […]” for “mV.”

Series [2] deals with T3, recombinant human TRPM8 stably expressed in HEK293 cells (hTRPM8) (Homo sapiens, UniProt Q7Z2W7).
T3 construct: expressed in transfected cells
Briefly: Ca2+ microfluorimetry screen for agonist/antagonist activity in hTRPM8-HEK293 cells. To be noted: for Activity (agonist/antagonist) / EC50: hTRPM8-HEK293; for Activity (agonist/antagonist): agonism = compound-induced Ca2+ influx, antagonism = modulation of WS-12-induced Ca2+ influx; for EC50: half of channel activation, N = 3; for EC50 / Hill coefficient: mean ± SD; for Hill coefficient: hTRPM8-HEK293 Ca2+ microfluorimetry dose-response. In kind it is cell-based. The text has this:
We first evaluated the series of compounds 20–29 synthesized using the Passerini‐Adamantane reaction. All compounds were screened for channel agonism and antagonism on recombinant human TRPM8 stably expressed in HEK293 cells (hTRPM8‐HEK293) with Ca^2+ microfluorimetry. […] Compound‐induced TRPM8‐mediated Ca^2+ influx was confirmed using untransfected HEK293 cells and the channel blocker AMTB. […] The concentration of compounds to reach half of channel activation (EC50) or to block half‐channel activity evoked by WS‐12 (IC50) are reported in Table 1, along with the percentage of maximal activation or blockade (Efficacy).
Assays were conducted to assess the channel activity of the recombinant hTRPM8 stably expressed in HEK‐293 cells. HEK‐293‐hTRPM8 cells were cultured in a monolayer using a DMEM GlutaMax with 10% FBS and 1% P/S and maintained at 37 °C in 5% CO2. For experiments, cells were prepared and seeded at the indicated densities. To evaluate compound effectiveness against hTRPM8 activity, microfluorometry‐based calcium flux assays were performed using Fluo‐4 NW Ca^2+ dye and fluorescence detection. HEK cell lines expressing hTRPM8 were seeded in 96‐well plates and incubated with the dye‐loading solution. Ion channel activity was measured using a plate reader, and fluorescence intensity changes were recorded following the addition of vehicle, compound at varying concentrations, and antagonist (10 μM AMTB). Data analysis included calculating the Z‐factor for each assay and normalizing compound effects to […]. Data were analyzed to determine the concentration exerting half‐maximal inhibition (IC50) or activation (EC50) of agonist‐induced calcium elevation, using GRAPHPAD PRISM8® software (Boston, MA, USA). All experiments were conducted in triplicate, and results are presented as mean ± standard deviation.

Series [3] has as its target T3, recombinant human TRPM8 stably expressed in HEK293 cells (hTRPM8). Described as above. In kind it is cell-based. To be noted: agonists vs WS-12, antagonists vs WS-12 response, read-out: Efficacy (percentage of maximal activation or blockade).

T1 sequence (Q7Z2W7 whole entry): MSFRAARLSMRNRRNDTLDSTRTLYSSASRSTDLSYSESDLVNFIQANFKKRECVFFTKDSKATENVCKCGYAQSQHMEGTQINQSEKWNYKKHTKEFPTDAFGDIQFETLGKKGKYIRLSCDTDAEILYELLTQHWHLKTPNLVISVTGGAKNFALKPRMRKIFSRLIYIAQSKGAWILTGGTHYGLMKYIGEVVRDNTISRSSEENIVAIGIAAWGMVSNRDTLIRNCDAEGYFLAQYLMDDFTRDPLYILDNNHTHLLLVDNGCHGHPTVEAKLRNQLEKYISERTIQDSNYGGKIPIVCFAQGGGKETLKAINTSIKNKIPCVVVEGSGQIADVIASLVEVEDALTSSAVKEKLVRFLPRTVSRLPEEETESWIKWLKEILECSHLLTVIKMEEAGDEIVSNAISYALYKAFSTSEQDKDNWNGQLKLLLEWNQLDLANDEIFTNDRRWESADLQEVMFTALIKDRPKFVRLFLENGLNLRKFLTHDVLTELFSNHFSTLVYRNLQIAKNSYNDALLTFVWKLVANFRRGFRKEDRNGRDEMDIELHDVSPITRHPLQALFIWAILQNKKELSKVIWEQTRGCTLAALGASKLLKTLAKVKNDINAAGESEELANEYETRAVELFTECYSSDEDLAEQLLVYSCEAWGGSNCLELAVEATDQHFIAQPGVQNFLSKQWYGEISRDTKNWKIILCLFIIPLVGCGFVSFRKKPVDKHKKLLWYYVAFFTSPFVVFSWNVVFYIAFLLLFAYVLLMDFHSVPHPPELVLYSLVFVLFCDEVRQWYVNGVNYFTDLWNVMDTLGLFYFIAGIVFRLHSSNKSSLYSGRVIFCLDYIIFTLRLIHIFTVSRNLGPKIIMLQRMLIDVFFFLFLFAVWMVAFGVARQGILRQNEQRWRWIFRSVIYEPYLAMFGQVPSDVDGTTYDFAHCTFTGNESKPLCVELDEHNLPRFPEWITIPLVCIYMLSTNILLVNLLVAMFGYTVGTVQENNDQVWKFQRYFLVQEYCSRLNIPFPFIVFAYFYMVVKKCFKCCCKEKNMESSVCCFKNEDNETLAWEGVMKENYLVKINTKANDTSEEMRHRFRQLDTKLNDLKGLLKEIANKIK
T3 sequence (Q7Z2W7 whole entry): as above
T2 sequence (O75762 whole entry): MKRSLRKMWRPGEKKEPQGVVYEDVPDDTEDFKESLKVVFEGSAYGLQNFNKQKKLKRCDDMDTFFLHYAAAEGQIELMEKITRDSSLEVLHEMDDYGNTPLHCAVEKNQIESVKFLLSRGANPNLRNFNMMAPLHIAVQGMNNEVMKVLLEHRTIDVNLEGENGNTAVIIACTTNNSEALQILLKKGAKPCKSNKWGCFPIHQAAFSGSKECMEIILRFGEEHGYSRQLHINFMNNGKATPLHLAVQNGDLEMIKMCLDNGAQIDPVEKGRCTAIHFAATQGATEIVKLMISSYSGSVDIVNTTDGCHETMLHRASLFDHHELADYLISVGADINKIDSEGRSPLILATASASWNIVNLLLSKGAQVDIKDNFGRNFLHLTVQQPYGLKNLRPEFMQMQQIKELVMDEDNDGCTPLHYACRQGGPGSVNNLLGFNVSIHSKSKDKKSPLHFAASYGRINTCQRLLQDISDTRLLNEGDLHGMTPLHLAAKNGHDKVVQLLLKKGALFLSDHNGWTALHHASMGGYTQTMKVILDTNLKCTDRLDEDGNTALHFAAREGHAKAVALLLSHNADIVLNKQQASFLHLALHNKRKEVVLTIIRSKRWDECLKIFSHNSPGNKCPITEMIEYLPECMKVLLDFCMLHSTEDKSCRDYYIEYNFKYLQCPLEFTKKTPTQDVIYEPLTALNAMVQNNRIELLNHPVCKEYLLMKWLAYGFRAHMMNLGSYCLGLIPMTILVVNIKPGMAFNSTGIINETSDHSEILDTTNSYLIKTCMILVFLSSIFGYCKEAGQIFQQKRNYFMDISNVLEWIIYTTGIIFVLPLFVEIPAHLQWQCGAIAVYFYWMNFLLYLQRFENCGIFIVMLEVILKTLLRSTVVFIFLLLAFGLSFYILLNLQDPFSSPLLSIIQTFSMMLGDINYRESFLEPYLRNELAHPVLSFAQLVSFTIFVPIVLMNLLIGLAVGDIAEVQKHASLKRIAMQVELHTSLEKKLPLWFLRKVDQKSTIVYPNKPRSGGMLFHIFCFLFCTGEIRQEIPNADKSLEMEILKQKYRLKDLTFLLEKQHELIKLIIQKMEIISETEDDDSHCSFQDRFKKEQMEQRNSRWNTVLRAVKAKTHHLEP

Consider `Cc1cccc(COc2ccccc2C(=O)N(CCCN)Cc2cccs2)c1` [AMTB, N‐(3‐aminopropyl)‐2‐{[(3‐methylphenyl)methyl]oxy}(20)‐N‐(2‐thienylmethyl)benzamide, reference compound], for which the “voltage dependency of channel blockade” value at hTRPM8 (voltage steps −120 to 120 mV, 0.08 μM compound 23, 10 μM AMTB) is listed as “not voltage dependent”.
`O=C(CO)NC12CC3CC(CC(C3)C1)C2` [Compound M1a]: in series [1], the Metabolite relative abundancy is 18.7%.
Take `CC(C)c1ccc(NC(=O)Cn2cnc3c2c(=O)n(C)c(=O)n3C)cc1` [HC030031, 2‐(1,3‐Dimethyl‐2,6‐dioxo‐1,2,3,6‐tetrahydro‐7H‐purin‐7‐yl)‐N‐(4‐isopropylphenyl)acetamide, reference compound]: the “block of hTRPA1‐evoked (AITC) current” value on hTRPA1 is on record as “completely abrogated”.
The term EC50 denotes the midpoint of the concentration-response curve. `COc1ccc(NC(=O)[C@@H]2C[C@H](C)CC[C@H]2C(C)C)cc1` [WS‐12, (1R,2S,5R)‐N‐(4‐methoxyphenyl)‐5‐methyl‐2‐(propan‐2‐yl)cyclohexane‐1‐carboxamide, reference compound]: the “WS‐12 Hill coefficient in the absence of compound 23” value at hTRPM8 (patch-clamp) came to 1.17. The “WS‐12 Hill coefficient in the presence of compound 23” value on hTRPM8 (patch-clamp, 0.08 μM compound 23) is 0.95. Moreover, at hTRPM8 (patch-clamp, n = 18, read-out: WS‐12 EC50 in the absence of compound 23), the EC50 came to 3000 nM.
The term Hill coefficient denotes a measure of the steepness of the concentration-response curve. Turning to `CCCC(=O)N(CC(=O)NC12CC3CC(CC(C3)C1)C2)C1CC1` [Compound 31, N‐(2‐(((3S,5S,7S)‐adamantan‐1‐yl)amino)‐2‐oxoethyl)‐N‐cyclopropylbutyramide], in series [2], the “Activity (agonist/antagonist)” value is reported as “Agonist”, the EC50 turned out to be 300 nM and the Hill coefficient stood at 0.7 ± 2.5. In addition, the Emax in series [3] was 72%.
For `O=C(CN(C(=O)C1CCCC1)C1CC1)NC12CC3CC(CC(C3)C1)C2` [Compound 32, N‐(2‐(((3S,5S,7S)‐adamantan‐1‐yl)amino)‐2‐oxoethyl)‐N‐cyclopropylcyclopentanecarboxamide], in that order: “potent hTRPM8 agonist”, 400 nM, 0.2 ± 1.5 and 56%.
In the same order, the values of `O=C(CN(C(=O)c1ccccc1)C1CC1)NC12CC3CC(CC(C3)C1)C2` [Compound 30, N‐(2‐(((3S,5S,7S)‐adamantan‐1‐yl)amino)‐2‐oxoethyl)‐N‐cyclopropylbenzamide] are “Agonist”, 1500 ± 1500 nM, 0.7 ± 1.6 and 92%.
As to `O=C(COC(=O)c1cccnc1)NC12CC3CC(CC(C3)C1)C2` [Compound 26, 2‐((3S,5S,7S)‐adamantan‐1‐ylamino)‐2‐oxoethyl nicotinate], in series [2], the “Activity (agonist/antagonist)” value is “agonist activity”, the EC50 stood at 1900 ± 1600 nM and the Hill coefficient is 0.4 ± 6.4. For the same molecule, in series [3], the Emax stood at 72%.
The term IC50 denotes the concentration that gives 50% inhibition. In the case of `O=C(COC(=O)Cc1ccccc1)NC12CC3CC(CC(C3)C1)C2` [Compound 21, 2‐((3S,5S,7S)‐adamantan‐1‐ylamino)‐2‐oxoethyl 2‐phenylacetate], in series [2], the IC50 was determined as 1500 ± 1100 nM, the “Activity (agonist/antagonist)” value is reported as “Antagonist” and the Hill coefficient is 0.5 ± 2.3. The Emax in series [3] amounted to 44%.
In the case of `CC(=O)N(CC(=O)NC12CC3CC(CC(C3)C1)C2)C12CC3CC(CC(C3)C1)C2` [Compound 38, N‐((3S,5S,7S)‐adamantan‐1‐yl)‐2‐(N‐((3S,5S,7S)‐adamantan‐1‐yl)acetamido)acetamide], in series [2], the “Activity (agonist/antagonist)” value was “Agonist”, the EC50 worked out at 2000 ± 1400 nM and the Hill coefficient was determined as 0.3 ± 3.6. In addition, the Emax in series [3] is 65%.

(Values after publication PMC12220852, “An adamantane‐based ligand as a novel chemical tool for thermosensory TRPM8 channel therapeutic modulation” (The Febs Journal, 2025).)
